In data set [1] the target is T1, EGFR^T790M (Homo sapiens, UniProt P00533, T790M).
T1 construct: purchased Carna Bioscience
Kind of data set: EGFR^T790M inhibitory assay (HTRF KinEASE-TK). The format is biochemical. The conditions noted are these: for IC50: HTRF KinEASE-TK, read-out: EGFR^T790M Inhibition IC50 ± SEM. The method, then: Osimertinib served as the positive control.
EGFRT790M inhibitory assay
The EGFR protein (EGFRT790M) was purchased from Carna Bioscience. The HTRF KinEASE-TK kit (Cat#62TK0PEB) was from Cisbio. All the other chemicals were […]
low volume, black, NBS), using Cisbio HTRF KinEASE -TK kit. The assay buffer contained 50 mM HEPES (Ph 7.0), 0.02% NaN3, 0.01% BSA, 0.1 mM Orthovanadate, […]
EGFR kinases was first incubated with compounds for 2 h respectively, then ATP/Peptide substrate mixture was added to initiate the reaction. After 30 min reaction at room temperature, the detection reagents were added. The TR-FRET signal was measured on PerkinElmer Envision using […]
The data was analyzed using Graph
Pad Prism (Version 6.0) software after three parallel experiments. […]

Data set [2] has as its system MCF-7 (breast cancer cell line). Nature of the data set: Antiproliferative assay, MCF-7. The format is cell-based. The conditions noted are these: Homo sapiens, MCF7; read-out: Antiproliferative Activity IC50 ± SEM MCF-7. The method, then:
(§1) For ease of manipulation, the average (GI50) versus the four cancer cell lines was used.
(§2) To investigate the antiproliferative potential of 3a–e, 4a–c, and 5a–c, the MTT assay was carried out using various cell lines in accordance with previously reported procedures. See Appendix SA (Supplementary Materials). […]
(§3) ethylenediamine tetra acetic acid (EDTA) was used to passage the cells after every 2-3 days. 96-well flat-bottomed cell culture plates were used to seed the cells at a density of 10^4 cells mL-1. The medium was aspirated from all the wells of culture plates after 24 h followed by the addition of synthesized compounds (in 200 μL medium to yield a final concentration of 0.1% (v/v) dimethylsulfoxide) into individual wells of the plates.
(§4) Four wells were designated to a single compound. The plates were allowed to incubate at 37°C for 96 h. Afterwards, the medium was aspirated and 3-[4,5-dimethylthiazol-2-yl]-2,5-diphenyltetrazolium bromide (MTT) (0.4 mg/mL) in medium was added to each well and subsequently incubated for 3 h. The medium was aspirated and 150 μL dimethyl sulfoxide (DMSO) was added to each well. The plates were vortexed followed by the measurement of absorbance at 540 nm on a microplate reader. The results were presented as inhibition (%) of proliferation in contrast to controls comprising 0.1% 4.2.1.2. Assay for antiproliferative effect
(§5) To explore the antiproliferative potential of compounds propidium iodide fluorescence assay was performed using different cell lines such as Panc-1 (pancreas cancer cell […]
(§6) (epithelial cancer cell line), respectively. To calculate the total nuclear DNA, a fluorescent dye (propidium iodide, PI) is used which can attach to the DNA, thus offering a quick and precise technique. PI cannot pass through the cell membrane and its signal intensity can be considered as directly proportional to quantity of cellular
(§7) DNA. Cells whose cell membranes are damaged or have changed permeability are counted as dead ones. The assay was performed by seeding the cells of different cell lines at a density of 3000-7500 cells/well (in200μl medium) in culture plates followed […]
(§8) The medium was removed; the compounds were added to the plates at 10 μM concentrations (in 0.1% DMSO) in triplicates, followed by incubation for 48h. DMSO (0.1%) was used as control. After incubation, medium was removed followed by the addition of PI (25 μl, 50μg/mL in water/medium) to each well of the plates. At -80 °C, the plates were allowed to freeze for 24 h, followed by thawing at 25 °C. A fluorometer (Polar-Star BMG Tech) was used to record the readings at excitation and emission wavelengths of 530 and 620 nm for each well. The percentage cytotoxicity of compounds was calculated using the following formula:
(§9) Where ATC= Absorbance of treated cells and AC= Absorbance of control. […]
(§10) was used as positive control in the assay. […]

The nature of data set [3]: Cell viability assay (MTT) on normal mammary epithelial cells. The format is cell-based. The following applies: human, MCF-10A normal mammary gland epithelial cells, four days of incubation. How it is done: The viability test was performed on a normal human mammary gland epithelial cell line (MCF-10A). The MTT test was used to assess the viability of compounds 3a–e, 4a–c, and 5a–c.
The MTT assay was used to determine how the synthesized compounds affected the viability of mammary epithelial cells (MCF-10A). See Appendix SA (Supplementary Materials). […]
4.2. Biological evaluation
4.2.1. Cytotoxic activity using MTT Assay and evaluation of IC50
MTT assay was performed to investigate the effect of the synthesized compounds on mammary epithelial cells (MCF-10A). The cells were propagated in medium consisting of Ham's F-12 medium/ Dulbecco's modified Eagle's medium (DMEM) (1:1) supplemented with 10% foetal calf serum, 2 mM glutamine, insulin (10 μg/mL), hydrocortisone (500 ng/mL) and epidermal growth factor (20 ng/mL). Trypsin ethylenediamine tetra acetic acid (EDTA) was used to passage the cells after every 2-3 days. 96-well flat-bottomed cell culture plates were used to seed the cells at a density of 10^4 cells mL-1. The medium was aspirated from all the wells of culture plates after 24 h followed by the addition of synthesized compounds (in 200 μL medium to yield a final concentration of 0.1% (v/v) dimethylsulfoxide) into individual wells of the plates.
Four wells were designated to a single compound. The plates were allowed to incubate at 37°C for 96 h. Afterwards, the medium was aspirated and 3-[4,5-dimethylthiazol-2-yl]-2,5-diphenyltetrazolium bromide (MTT) (0.4 mg/mL) in medium was added to each well and subsequently incubated for 3 h. The medium was aspirated and 150 μL dimethyl sulfoxide (DMSO) was added to each well. The plates were vortexed followed by the measurement of absorbance at 540 nm on a microplate reader. […]

Data set [4] concerns the target T2, BRAF^V600E (Mus musculus, UniProt P28028, V585E).
T2 construct: Mouse full-length GST-tagged; GST; purchased Invitrogen PV3849
Kind of data set: V600E mutant BRAF kinase assay. The format is biochemical. The conditions noted are these: read-out: BRAF^V600E Inhibition IC50 ± SEM. How it is done:
V600E mutant BRAF kinase assay was performed to investigate the activity of […]
Mouse full-length GST-tagged
BRAFV600E (7.5 ng, Invitrogen, PV3849) was pre -incubated with drug (1 µL) and assay dilution buffer (4 µL) for 6 0 min at 25 °C. In assay dilution buffer, a solution (5 µL) containing MgCl2 (30 mM), ATP (200 µM), recombinant human full length (200 ng) […] N-terminal His-tagged MEK1 (Invitrogen) was added to start the assay, after incubation for 25 min at 25 °C. The assay was stopped using 5X protein denaturing buffer (LDS) solution (5 µL). To further denature the protein, heat (70° C) was applied […]
electrophoresis (at 200 V). 10 µL of each reaction was loaded into the precast plates and electrophoresis was allowed to proceed. After completion of electrophoresis, the front part of the precast gel plate (holding hot ATP) was cut and afterwards cast -off.
The dried gel was developed using a phosphor screen. […]
Computerized Prism 5 program was used to statistically analyzed data using one-way ANOVA test followed by Tukey’s as post ANOVA for multiple comparison at P ≤.05.
Data were presented as mean ± SEM.

Data set [5] deals with T3, EGFR (Homo sapiens, UniProt P00533). Kind of data set: EGFR-TK inhibitory assay.
T3 sequence (P00533 669-1210): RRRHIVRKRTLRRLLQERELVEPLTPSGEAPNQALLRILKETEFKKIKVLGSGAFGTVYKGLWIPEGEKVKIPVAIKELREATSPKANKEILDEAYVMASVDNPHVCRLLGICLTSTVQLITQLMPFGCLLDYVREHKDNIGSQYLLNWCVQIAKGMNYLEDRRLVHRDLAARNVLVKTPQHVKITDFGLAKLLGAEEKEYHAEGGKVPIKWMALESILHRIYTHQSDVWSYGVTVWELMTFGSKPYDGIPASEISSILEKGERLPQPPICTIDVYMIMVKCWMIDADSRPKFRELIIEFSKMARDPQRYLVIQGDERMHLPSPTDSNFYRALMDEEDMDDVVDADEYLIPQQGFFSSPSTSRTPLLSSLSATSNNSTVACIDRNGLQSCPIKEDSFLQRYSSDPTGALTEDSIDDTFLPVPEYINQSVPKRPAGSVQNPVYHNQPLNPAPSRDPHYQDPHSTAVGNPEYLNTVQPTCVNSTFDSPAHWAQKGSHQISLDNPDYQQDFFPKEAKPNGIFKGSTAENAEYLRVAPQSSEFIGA
Data set [6] concerns LOX-IMVI melanoma cell line. Kind of data set: LOX-IMVI melanoma cell line cytotoxicity assay (MTT). The format is cell-based. The following applies: Homo sapiens, 5-dose concentrations, read-out: LOX-IMVI Melanoma IC50 ± SEM. The method, then:
The IC50 values of the test compounds were determined at 5-dose concentrations, with staurosporine serving as a control.
The anticancer activity of the synthesized derivatives was determined using the MTT cytotoxicity assay on LOX-IMVI melanoma cell line. See Appendix SA (Supplementary Materials).

Data set [7] has as its system Panc-1 (pancreatic cancer cell line). Kind of data set: Antiproliferative assay, Panc-1. The following applies: Homo sapiens, read-out: Antiproliferative Activity IC50 ± SEM Panc-1. The format is cell-based. How it is done: as §1, §2, §3, §4, §5, §6, §7, §8, §9, §10
Data set [8] deals with HT-29 (colon cancer cell line). Nature of the data set: Antiproliferative assay, HT-29. The conditions noted are these: Homo sapiens, read-out: Antiproliferative Activity IC50 ± SEM HT-29. The format is cell-based. The method, then:
as §1, §2, §3, §4, §5, §6, §7, §8, §9, §10

Data set [9] has as its system A-549 (epithelial cancer cell line). Nature of the data set: Antiproliferative assay, A-549. The format is cell-based. The following applies: Homo sapiens, A549; read-out: Antiproliferative Activity IC50 ± SEM A-549. How it is done: as §1, §2, §3, §4, §5, §6, §7, §8, §9, §10
The subject of data set [10] is four human cancer cell lines (Panc-1, MCF-7, HT-29, A-549). Nature of the data set: Antiproliferative assay, average (GI50) versus the four cancer cell lines. The format is cell-based. The conditions noted are these: Homo sapiens; average versus the four cancer cell lines. How it is done: as §1, §2, §3, §4, §5, §6, §7, §8, §9, §10
Another data set deals with c-MET. On the set-up: method as in PMID 29758406. The conditions noted are these: cited from earlier work.
The next data set concerns EGFR^L858R. On the set-up: method as in PMID 29758406. The conditions noted are these: cited from earlier work.
In data set [11] the target is T1, EGFR^T790M. The conditions noted are these: cited from earlier work.
Data set [12] deals with T3, EGFR. Further details: CD, amino acids 645–1186); His6 (N); made in house; host or cells: Sf-9 insect cells (baculovirus; pBlueBacHis2B / pFASTBacHTc. The following applies: cited from earlier work.
Data set [13] deals with BRAF^V600E. The following applies: cited from earlier work.
For a further data set, the system named is four cancer cell lines. On the set-up: method as in PMID 32920363. The conditions noted are these: read-out: GI50 against four cancer cell lines; cited from earlier work.

For orientation: IC50 means the midpoint of a concentration-inhibition curve. The term viability denotes a per cent measure of how many cells are alive, often set against a control. Read a low viability as more harm to the cells. For orientation: GI50 means the concentration that inhibits growth by half.

Like-named read-outs stand apart in the source and are kept apart here.

T1 sequence (P00533 25-1210 T790M): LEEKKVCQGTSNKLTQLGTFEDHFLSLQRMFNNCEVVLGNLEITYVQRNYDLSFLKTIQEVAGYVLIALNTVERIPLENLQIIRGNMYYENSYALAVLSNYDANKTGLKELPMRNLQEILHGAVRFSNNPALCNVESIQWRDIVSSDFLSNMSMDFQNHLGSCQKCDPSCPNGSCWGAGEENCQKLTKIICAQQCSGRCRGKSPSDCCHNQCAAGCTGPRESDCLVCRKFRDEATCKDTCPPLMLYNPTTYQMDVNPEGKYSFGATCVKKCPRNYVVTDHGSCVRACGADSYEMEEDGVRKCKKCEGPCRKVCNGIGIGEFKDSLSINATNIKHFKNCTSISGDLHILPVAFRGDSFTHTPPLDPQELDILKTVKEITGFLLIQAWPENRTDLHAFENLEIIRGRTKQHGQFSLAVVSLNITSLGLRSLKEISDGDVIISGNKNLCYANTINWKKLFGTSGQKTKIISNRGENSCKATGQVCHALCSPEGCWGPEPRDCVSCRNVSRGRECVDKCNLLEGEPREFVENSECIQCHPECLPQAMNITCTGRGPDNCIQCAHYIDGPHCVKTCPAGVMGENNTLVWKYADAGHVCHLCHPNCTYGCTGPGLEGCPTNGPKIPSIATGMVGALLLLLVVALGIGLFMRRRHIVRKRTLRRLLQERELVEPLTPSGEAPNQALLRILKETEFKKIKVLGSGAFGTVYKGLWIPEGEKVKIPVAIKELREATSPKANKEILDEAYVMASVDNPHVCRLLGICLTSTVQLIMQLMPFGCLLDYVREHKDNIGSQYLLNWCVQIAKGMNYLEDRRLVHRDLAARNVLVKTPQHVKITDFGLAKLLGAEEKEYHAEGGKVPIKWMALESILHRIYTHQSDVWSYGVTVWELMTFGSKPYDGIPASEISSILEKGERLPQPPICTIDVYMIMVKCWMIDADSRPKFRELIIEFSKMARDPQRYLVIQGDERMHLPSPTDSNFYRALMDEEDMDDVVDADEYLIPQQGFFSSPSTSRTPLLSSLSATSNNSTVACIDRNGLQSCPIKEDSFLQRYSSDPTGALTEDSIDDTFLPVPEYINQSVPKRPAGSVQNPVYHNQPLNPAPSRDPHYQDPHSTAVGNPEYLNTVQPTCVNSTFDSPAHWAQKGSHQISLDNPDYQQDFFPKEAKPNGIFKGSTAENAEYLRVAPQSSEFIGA
T2 sequence (P28028 whole entry V585E): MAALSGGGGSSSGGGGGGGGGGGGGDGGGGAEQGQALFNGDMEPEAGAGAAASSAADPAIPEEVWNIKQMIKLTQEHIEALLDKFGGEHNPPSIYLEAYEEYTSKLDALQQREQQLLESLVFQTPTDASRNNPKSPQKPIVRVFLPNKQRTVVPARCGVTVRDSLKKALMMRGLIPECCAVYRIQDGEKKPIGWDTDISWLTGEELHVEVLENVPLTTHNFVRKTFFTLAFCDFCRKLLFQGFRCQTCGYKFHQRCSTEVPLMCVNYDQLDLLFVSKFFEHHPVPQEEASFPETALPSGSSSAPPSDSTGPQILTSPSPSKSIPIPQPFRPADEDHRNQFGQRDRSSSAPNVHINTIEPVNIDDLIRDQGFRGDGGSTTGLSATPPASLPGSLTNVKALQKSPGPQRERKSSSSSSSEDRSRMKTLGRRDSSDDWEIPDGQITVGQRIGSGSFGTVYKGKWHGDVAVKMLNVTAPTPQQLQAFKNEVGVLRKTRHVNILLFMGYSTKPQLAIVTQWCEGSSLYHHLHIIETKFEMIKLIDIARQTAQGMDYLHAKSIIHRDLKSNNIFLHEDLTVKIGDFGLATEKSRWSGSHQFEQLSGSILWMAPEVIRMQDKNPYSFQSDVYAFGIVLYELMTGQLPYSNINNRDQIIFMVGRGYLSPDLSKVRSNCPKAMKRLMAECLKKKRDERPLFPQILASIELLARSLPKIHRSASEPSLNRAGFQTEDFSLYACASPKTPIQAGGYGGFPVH

On to `CCOC(=O)c1[nH]c2ccc(Cl)cc2c1CNCCc1ccc(N2CCCC2)cc1` [Compound 3b, Ethyl 5-chloro-3-((4-(pyrrolidin-1-yl)phenethylamino)methyl)-1H-indole-2-carboxylate], for which the “selectivity index toward EGFR^T790M protein over wild-type EGFR” value on EGFR^T790M [1] worked out at 8 fold. In addition, the IC50 worked out at 9.2 ± 2 nM on EGFR^T790M [1]; 32 ± 3 nM in data set [2]; 39 ± 3 nM at BRAF^V600E [4]; 74 ± 5 nM on EGFR [5]; 1120 ± 10 nM in data set [6]; 30 ± 3 nM in [7]. Also, the IC50 in data set [8] amounted to 32 ± 3 nM; in [9] it was 30 ± 3 nM. The molecule further yielded a viability at 96 h, 50 µM in data set [3] of 91%. The molecule further came in with a GI50 in data set [10] of 31 nM.
Turning to `CCOC(=O)c1[nH]c2ccc(Cl)cc2c1CNCCc1cccc(N2CCCCC2)c1` [Compound 3e, Ethyl 5-chloro-3-((3-(piperidin-1-yl)phenethylamino)methyl)-1H-indole-2-carboxylate], the “selectivity index toward EGFR^T790M protein over wild-type EGFR” value at EGFR^T790M [1] was 8 fold. Besides, the IC50 on EGFR^T790M [1] worked out at 8.6 ± 2 nM; in [2], 30 ± 3 nM; on BRAF^V600E [4] it was 35 ± 3 nM; on EGFR [5] it was 68 ± 5 nM; in data set [6], 960 ± 10 nM; in data set [7] it was 29 ± 3 nM. For the same molecule, the half-maximal inhibitory concentration (IC50) was found to be 30 ± 3 nM in data set [8] and 27 ± 2 nM in data set [9]. Further, in [3], the viability at 96 h, 50 µM is 92%. Further, the “fold more potent than erlotinib (EGFR IC50)” value on EGFR [5] (relative to erlotinib IC50 = 80 nM) is on record as 1.2 fold. The same molecule showed a GI50 in data set [10] of 29 nM.
On to `CCc1ccc(Cn2cc(-c3cc(-c4ccc(Br)cc4)nc(N)n3)c3ccccc32)cc1` [Compound II], for which the results for the half-inhibitory concentration (IC50) with c-MET, with EGFR^L858R and on EGFR^T790M [11] were 595 nM, 99 nM and 94 nM, respectively.
As to `Cc1c2n(c3ccc(Cl)cc13)C(=O)CN(CCc1ccc(N3CCOCC3)cc1)C2=O` [Compound VI], the IC50 at EGFR [12] was 80 nM; with BRAF^V600E [13], 150 nM. Besides, the GI50 with four cancer cell lines is 1110 nM.

The values are drawn from paper PMC9921301, “Design, Synthesis, and Antiproliferative Activity of New 5-Chloro-indole-2-carboxylate and Pyrrolo[3,4-b]indol-3-one Derivatives as Potent Inhibitors of EGFR^T790M/BRAF^V600E Pathways” (Molecules, 2023).
